Measurements published in patent publication US8026359B2, “Fungicidal heterocyclic amines” (E.I. du Pont de Nemours and Company, priority 2007, dated 2011).

Assays:
Assay type in all cases: in vivo
Fusarium graminearum = test: whole plant or invertebrate; conditions: for Test E disease control rating: 200 ppm, 100 = 100% disease control, 0 = no control relative to controls; for pest or weed control at 200 ppm: Fusarium graminearum, in Triticum aestivum, 192 h, read-out: Test E disease control rating
Venturia inaequalis = test: Test O: apple scab, preventive spray on apple seedlings; conditions: 100 ppm (100 g/ha, 1000 L/ha), inoculated the following day, 100 = 100% disease control, 0 = no control relative to controls
From the text: (§1) General protocol for preparing test suspensions for Tests A-R: The test compounds were first dissolved in acetone in an amount equal to 3% of the final volume and then suspended at the desired concentration (in ppm) in acetone and purified water (50/50 mix) containing 250 ppm of the surfactant Trem® 014 (polyhydric alcohol esters). The resulting test suspensions were then used in tests A-R. In Tests A-M, compounds were sprayed as a 200 ppm test suspension (equivalent to a rate of 500 g/ha) or as a 40 ppm test suspension to the point of runoff on the test plants. In Tests N-R, compounds were sprayed as a 100 g/ha test suspension (equivalent to a rate of 100 ppm) on the test plants at an application volume of 1000 L/ha. The test suspension was sprayed on apple seedlings.

[1] = test system: Puccinia recondita f. sp. tritici; test: Test B: wheat leaf rust, preventive spray on wheat seedlings; conditions: 200 ppm, 100 = 100% disease control, 0 = no control relative to controls; for pest or weed control at 200 ppm: Puccinia recondita, 192 h, read-out: Test B disease control rating
Summary of the method: (§2)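 Spray suspensions: compound in acetone at 3% of final volume, diluted into acetone:water 1:1 containing 250 ppm polyhydric alcohol ester surfactant. Applied to run-off at 40 or 200 ppm; the higher level corresponds to 500 g/ha.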

Uncinula necator = test: Test N: grape powdery mildew, preventive spray on grape seedlings; conditions: 100 ppm (100 g/ha, 1000 L/ha), inoculated the following day, 100 = 100% disease control, 0 = no control relative to controls
From the text: as §1, with “grape” for “apple”

Alternaria solani = test: Test H: tomato early blight, preventive spray on seedlings; conditions: 200 ppm; 100 = 100% disease control, 0 = no control relative to controls
Summary of the method: as §2

Septoria tritici = test: Test D: wheat leaf blotch, preventive spray on wheat seedlings; conditions: 200 ppm, 100 = 100% disease control, 0 = no control relative to controls; for pest or weed control at 200 ppm: Zymoseptoria tritici, 504 h, read-out: Test D disease control rating
Summary of the method: as §2

Septoria nodorum = test: Test C: wheat glume blotch, preventive spray on wheat seedlings; conditions: 200 ppm, 100 = 100% disease control, 0 = no control relative to controls; for pest or weed control at 200 ppm: Parastagonospora nodorum, 216 h, read-out: Test C disease control rating
Summary of the method: as §2

Botrytis cinerea = test: Test F: tomato Botrytis, preventive spray on tomato seedlings; conditions: 200 ppm, 100 = 100% disease control, 0 = no control relative to controls; for pest or weed control at 200 ppm: Botrytis cinerea, 120 h, read-out: Test F disease control rating
Summary of the method: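 Preventive run-off spray onto tomato seedlings at 200 ppm (equivalent to 500 g/ha) or 40 ppm. Suspensions: compound predissolved in acetone at 3% of final volume, then taken up in acetone/purified water 50/50 containing 250 ppm Trem® 014 surfactant.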

Plasmopara viticola = test: Test R: grape downy mildew, preventive spray on grape seedlings; conditions: 100 ppm (100 g/ha, 1000 L/ha), inoculated the following day, 100 = 100% disease control, 0 = no control relative to controls
From the text: as §1, with “grape” for “apple”, “seedlings. The following day the seedlings were inoculated with a spore suspension of Plasmopara viticola (the causal agent of grape downy mildew) and incubated in a saturated atmosphere at 20° C. for 24 h, then moved to a growth chamber at 20° C. for 7 days, after which time the test units were placed back into a saturated atmosphere at 20° C. for 24 h. Upon removal, disease ratings were made.” for “seedlings.”

[2] = test system: Colletotrichum orbiculare; test: Test I: cucumber Colletotrichum anthracnose, preventive spray on cucumber seedlings; conditions: 100 = 100% disease control, 0 = no control relative to controls; for Test I disease control rating: 200 ppm; for pest or weed control at 200 ppm: Colletotrichum orbiculare, 144 h, read-out: Test I disease control rating
Summary of the method: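 Preventive foliar spray to run-off on cucumber seedlings, at 200 ppm (stated as equal to 500 g/ha) or 40 ppm. Test suspensions were made in acetone/water 50/50 containing 250 ppm Trem 014, after first dissolving compound in acetone at 3% of final volume.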

[3] = test system: Erysiphe graminis f. sp. tritici; test: Test A: wheat powdery mildew, preventive spray on wheat seedlings; conditions: 200 ppm, 100 = 100% disease control, 0 = no control relative to controls; for pest or weed control at 200 ppm: Blumeria graminis, 192 h, read-out: Test A disease control rating
Summary of the method: as §2

| Structure (SMILES) | Test E disease control rating (Fusarium graminearum) [%] | Test O disease control rating (Venturia inaequalis) [%] | Test B disease control rating [1] [%] | Test N disease control rating (Uncinula necator) [%] | Test H disease control rating (Alternaria solani) [%] | Test D disease control rating (Septoria tritici) [%] | Test C disease control rating (Septoria nodorum) [%] | Test F disease control rating (Botrytis cinerea) [%] | Test R disease control rating (Plasmopara viticola) [%] | Test I disease control rating [2] [%] | Test A disease control rating [3] [%] | pest or weed control at 200 ppm (Fusarium graminearum) [%] | pest or weed control at 200 ppm [1] [%] | pest or weed control at 200 ppm [2] [%] | pest or weed control at 200 ppm [3] [%] | pest or weed control at 200 ppm (Septoria tritici) [%] | pest or weed control at 200 ppm (Septoria nodorum) [%] | pest or weed control at 200 ppm (Botrytis cinerea) [%] |
| --- | --- | --- | --- | --- | --- | --- | --- | --- | --- | --- | --- | --- | --- | --- | --- | --- | --- | --- |
| COC[C@H](C)Nc1nccc(-c2ncnc(Nc3ccc(C)c([N+](=O)[O-])c3)n2)n1 [Compound 26] | 98 | 96 | 98 | 69 | 91 | 2 | 100 | 17 | 96 | – | – | – | – | – | – | – | – | – |
| COC[C@H](C)Nc1nccc(-c2ncnc(Nc3ccc(C)c(F)c3)n2)n1 [Compound 25] | 99 | 59 | 99 | 99 | 99 | 16 | 100 | 63 | 86 | – | – | – | – | – | – | – | – | – |
| Clc1cc(Cl)c(Nc2cc(-c3ccnc(NC4CCOCC4)n3)ccn2)c(Cl)c1 [Compound 99] | 92 | 83 | 95 | 30 | – | 30 | 100 | 0 | 99 | 0 | 0 | – | – | – | – | – | – | – |
| Clc1cccc(Cl)c1Nc1cc(-c2ccnc(NC3CCOCC3)n2)ccn1 [Compound 81] | 97 | 69 | 100 | 97 | – | 92 | 99 | 99 | 97 | 91 | 95 | – | – | – | – | – | – | – |
| COC[C@H](C)Nc1nccc(-c2ncnc(Nc3cccc(Br)c3)n2)n1 [Compound 11] | 99 | 92 | 96 | 85 | 98 | 0 | 100 | 96 | 27 | – | – | – | – | – | – | – | – | – |
| COCC(C)Nc1nccc(-c2ncnc(Nc3cccc(Cl)c3)n2)n1 (stereo not shown) [Compound 1, N-(3-chlorophenyl)-4-[2-[(2-methoxy-1-methylethyl)amino]-4-pyrimidinyl]-1,3,5-triazine-2-amine] | – | 78 | – | 90 | – | – | – | – | 26 | – | – | 98 | 96 | 99 | 76 | 0 | 100 | 98 |
| Fc1cccc(Nc2cc(-c3ccnc(NC4CCOCC4)n3)ccn2)c1 [Compound 67, 4-[2-[(3-fluorophenyl)amino]-4-pyridinyl]-N-(tetrahydro-2H-pyran-4-yl)-2-pyrimidinamine] | – | 73 | – | 55 | – | – | – | – | 94 | – | – | 0 | 97 | 79 | 17 | 52 | 99 | 95 |
| COC[C@H](C)Nc1nccc(-c2ncnc(Nc3cccc([N+](=O)[O-])c3)n2)n1 [Compound 21] | 87 | 99 | 99 | 57 | – | 13 | 97 | 72 | 79 | 96 | – | – | – | – | – | – | – | – |
